Values joined by “and” are separate entries in the source; they are usually repeats but may differ in a detail not shown here. Identical values can stand only once.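 Each compound was tested at five concentrations against cells in 96-well plates for 48 hours. Here, GI50 denotes the concentration required for 50% inhibition of growth.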 Active and inactive are the calls of the source. Rule as the data show it: active = GI50 up to about 1.1 µM and inactive = higher.
Experiments:
Assay in all cases: NCI tumour cell line growth inhibition, 48 h
A549 = system: A549
BT-549 = system: BT-549
CAKI-1 = system: CAKI-1
COLO 205 = system: COLO 205
EKVX = system: EKVX
HCC 2998 = system: HCC 2998
HOP-62 = system: HOP-62
HT-29 = system: HT-29
Hs-578T = system: Hs-578T
IGROV-1 = system: IGROV-1
KM12 = system: KM12
LOX IMVI = system: LOX IMVI
MCF7 = system: MCF7
MDA-MB-231 = system: MDA-MB-231
MDA-N = system: MDA-N
MOLT-4 = system: MOLT-4
Malme-3M = system: Malme-3M
NCI-H226 = system: NCI-H226
NCI-H460 = system: NCI-H460
NCI-H522 = system: NCI-H522
OVCAR-5 = system: OVCAR-5
PC-3 = system: PC-3
RPMI-8226 = system: RPMI-8226
SF-295 = system: SF-295
SF-539 = system: SF-539
SK-OV-3 = system: SK-OV-3
SN12C = system: SN12C
SNB-19 = system: SNB-19
SR = system: SR
SW-620 = system: SW-620
T47D = system: T47D
UACC-62 = system: UACC-62
UO-31 = system: UO-31
786-0 = system: 786-0
A498 = system: A498
ACHN = system: ACHN
CCRF-CEM = system: CCRF-CEM
DU-145 = system: DU-145
HCT-116 = system: HCT-116
HCT-15 = system: HCT-15
HL-60 = system: HL-60
HOP-92 = system: HOP-92
K562 = system: K562
M14 = system: M14
MDA-MB-435 = system: MDA-MB-435
NCI-H23 = system: NCI-H23
NCI/ADR-RES = system: NCI/ADR-RES
OVCAR-3 = system: OVCAR-3
OVCAR-8 = system: OVCAR-8
SF-268 = system: SF-268
SK-MEL-28 = system: SK-MEL-28
SK-MEL-2 = system: SK-MEL-2
SK-MEL-5 = system: SK-MEL-5
SNB-75 = system: SNB-75
OVCAR-4 = system: OVCAR-4
TK-10 = system: TK-10
UACC-257 = system: UACC-257

Measured: GI50

COc1ccc(-c2c3c(n(C4OC(COC(C)=O)C(OC(C)=O)C(OC(C)=O)C4OC(C)=O)c(=S)c2C#N)CC(C)(C)CC3=O)cc1 (stereo not given)
inactive: A549 65.5 µM | BT-549 62.1 µM and 32.1 µM | CAKI-1 59.2 µM | COLO 205 > 100 µM and 50.4 µM | EKVX 26.6 µM | HCC 2998 47.6 µM and 61.1 µM | HOP-62 > 100 µM | HT-29 33.1 µM and 58.2 µM | Hs-578T 40.4 µM and 36.2 µM | IGROV-1 > 100 µM and 74.5 µM | KM12 74.8 µM | LOX IMVI 27.5 µM and 29.3 µM | MCF7 57.3 µM and 28.8 µM | MDA-MB-231 37.9 µM and 35.6 µM | MDA-N 33 µM and 65.8 µM | MOLT-4 20.7 µM and 27.8 µM | Malme-3M > 100 µM and 56.2 µM | NCI-H226 55.5 µM and 44.8 µM | NCI-H460 > 100 µM and 61.4 µM | NCI-H522 43.5 µM and 22.6 µM | OVCAR-5 61 µM | PC-3 59.6 µM and 34.4 µM | RPMI-8226 32.6 µM and 26.5 µM | SF-295 78 µM | SF-539 35.2 µM and 22.8 µM | SK-OV-3 96.2 µM | SN12C > 100 µM and 55.3 µM | SNB-19 97.3 µM | SR 24.9 µM and 37.3 µM | SW-620 37.1 µM | T47D 40.9 µM and 64.1 µM | UACC-62 30.3 µM and 33 µM | UO-31 > 100 µM and 55.3 µM

O=C(NN1C(=O)/C(=C/c2ccc(Cl)cc2)N=C1c1ccccc1)c1c(Cl)c(Cl)c(Cl)c(Cl)c1-c1nc2ccccc2[nH]1
inactive: 786-0 18.5 µM | A498 12.9 µM | A549 5.98 µM | ACHN 22.1 µM | BT-549 13.4 µM | CAKI-1 18.9 µM | CCRF-CEM 12.1 µM | COLO 205 22.6 µM | DU-145 17.7 µM | EKVX 19.4 µM | HCC 2998 8.09 µM | HCT-116 15.6 µM | HL-60 18.9 µM | HOP-92 11.6 µM | HT-29 27.4 µM | Hs-578T 13.5 µM | IGROV-1 2.47 µM | K562 4.28 µM | KM12 4.15 µM | LOX IMVI 8.79 µM | M14 17.3 µM | MCF7 9.91 µM | MDA-MB-435 2.8 µM | MDA-N 3.84 µM | MOLT-4 6.93 µM | Malme-3M 20.8 µM | NCI-H226 8 µM | NCI-H23 13.4 µM | NCI-H522 18.2 µM | NCI/ADR-RES 15.3 µM | OVCAR-3 33 µM | OVCAR-5 29.1 µM | OVCAR-8 27.9 µM | PC-3 20.2 µM | SF-268 14.6 µM | SF-539 23.8 µM | SK-MEL-28 20.3 µM | SK-MEL-2 18.6 µM | SK-MEL-5 19.7 µM | SN12C 24.1 µM | SNB-19 22.1 µM | SNB-75 12.2 µM | SR 3.58 µM | SW-620 20.6 µM | UACC-62 10.7 µM | UO-31 16.3 µM
9.62 µM: HCT-15
active: HOP-62 < 0.01 µM | NCI-H460 < 10 nM | SF-295 < 0.01 µM | SK-OV-3 < 0.01 µM | T47D 582 nM

Cc1nc2c(Br)cc(Br)cc2c(=O)n1-c1ccccc1NC1OCC(O)C(O)C1O (stereo not given)
48.8 µM and 41.1 µM: HCT-15
inactive: ACHN 17.2 µM and 32.3 µM | BT-549 26.5 µM and 29.3 µM | CAKI-1 45.2 µM and 28.4 µM | CCRF-CEM 21.5 µM and 11.5 µM | COLO 205 18.6 µM and 17.6 µM | EKVX 48.6 µM and 39 µM | HCC 2998 33.7 µM | HCT-116 24.7 µM and 16 µM | HOP-92 19.6 µM and 35.8 µM | HT-29 24.9 µM and 15.3 µM | Hs-578T > 25.5 µM and 39.7 µM | IGROV-1 41.4 µM and 21.2 µM | KM12 24.7 µM | LOX IMVI 14.6 µM and 21.6 µM | M14 21.8 µM and 32.7 µM | MDA-MB-231 27.2 µM and 45.7 µM | MDA-MB-435 42.1 µM and 39.4 µM | MDA-N 33.7 µM and 41.4 µM | Malme-3M 28.3 µM and 37.8 µM | NCI-H23 20.7 µM and 38 µM | NCI-H522 19.7 µM and 17.4 µM | OVCAR-3 24.3 µM and 20.9 µM | OVCAR-4 24.1 µM and 39.1 µM | OVCAR-5 44.2 µM and 42.7 µM | PC-3 33.3 µM and 46 µM | SK-MEL-28 69.2 µM and 74.3 µM | SK-MEL-2 38.8 µM and 34.3 µM | SNB-19 40.8 µM and 22.9 µM | SNB-75 18.8 µM and 33 µM | SW-620 28.6 µM | T47D 44 µM and 30.5 µM | TK-10 23.4 µM and 40.9 µM | UACC-257 23.7 µM and 44.8 µM | UO-31 42.2 µM and 30.5 µM
